Measurements from publication PMC12259270, “Sensory neuron–expressed FGF13 controls nociceptive signaling in diabetic neuropathy models” (The Journal of Clinical Investigation, 2025).
Where “and” joins values, the source holds several entries; their conditions need not be identical. Equal values may be shown once. Residues, ends and D or L forms follow the SMILES beside them. *: point of attachment. Cbz = O=C(OCc1ccccc1)*; OtBu = CC(C)(C)O*

Columns and labels:
[1] = system: C57BL/6 mice; test: Thermal hypersensitivity induced by intrathecal AAV2-FGF13-GFP (Hargreaves); type: in vivo, mouse
Procedure: Next, the in vivo PW164 strategy was applied to test ZL192 activity in mice that received i.t. injection (L4-L6) of either AAV2-shCTRL or AAV2-shFGF13 viral particles (10 μL; Figure 6B).
Experiments were performed on 6- to 12-week-old male C57BL/6 mice (The Jackson Laboratory, Bar Harbor, ME) housed in the AAALAC-accredited facility at the University of Texas Medical Branch. Mice were group-housed with up to 5 mice per cage on a 12-to-12-hour light–dark cycle and had access to water and food ad libitum. All protocols were approved by the Institutional Animal Care and Use Committee (IACUC) at the University of Texas Medical Branch and in accordance with the National Institutes of Health (NIH) guidelines.
PW164 and ZL192 were dissolved in DMSO and saline in a ratio of 1:10. 0.1% capsaicin (10% ethanol, 10% Tween-20 in saline; Sigma-Aldrich). All the compounds were injected at the center of the hind paw. The control group received a DMSO-saline mixture. 0.1% capsaicin was injected at the center of the hind paw and then PW164 (0.07 mg/ml) or DMSO was intradermally administered at the site of capsaicin injection Capsaicin was prepared from 1% (wt/vol) capsaicin stock solution dissolved in 100% ethanol, and 0.1% of diluted stock was made using tween-80 and saline solution at a 1:1:8 ratio. Bupivacaine was prepared from a 1:2 dilution with sterile 0.9% saline and locally injected in the center of the paw at 7 mg/ml.
AAV2 viral particles packaged by the University of North Carolina Gene Therapy Core Facility (viral titer ranging […]
Before intrathecal injections in the lumbar region, mice were maintained in an anesthetizing box with 2% isoflurane to induce unconsciousness. […]
Mechanical sensitivity was assessed using von Frey filaments (VFF 0.1g and 1.0 g force) in mice that were either naïve or received intraplantar ([…].) injection of capsaicin. […]

[2] = Blood pressure and body weight after dosing, C57BL/6 mice; conditions: for Diastolic / MAP / Systolic / Body weight, Pre-dose / Body weight, Terminal: PW164 15 mpk i.d.
[3] = 0h after dosing, individual No. 85, 87, 88, 89, 91, 15 mg/kg
[4] = 2h after dosing, individual No. 85, 87, 88, 89, 91, 15 mg/kg
[5] = 8h after dosing, individual No. 85, 87, 88, 89, 91, 15 mg/kg
[6] = individual No. 85, 87, 88, 89, 91, 15 mg/kg

In the case of `COC(=O)[C@@H](NC(=O)[C@H](CCC(=O)OC(C)(C)C)NC(=O)[C@H](CC(C)C)NC(=O)[C@@H]1CCCN1C(=O)OCc1ccccc1)C(C)C` [PW164] (Cbz-PLE(OtBu)V-OMe), the “duration of rescue in AAV2-FGF13-GFP mice” value ([1]; PW164 5 μL, 0.7 mg/mL) is reported as “up to 2.5 hours”, the “thermal hypersensitivity in AAV2-FGF13-GFP mice” value ([1]; bupivacaine 7 mg/mL (5 μL), Suppl Fig 15B) is reported as “Complete recovery” and the “thermal hypersensitivity in AAV2-FGF13-GFP mice” value ([1]; day 68, PW164 5 μL, 0.7 mg/mL) is reported as “partial rescue”. It also gave a Diastolic ([2]; 0h after dosing, Mean) of 81, an MAP ([2]; 0h after dosing, Mean) of 92 and a Systolic ([2]; 0h after dosing, Mean) of 114. For the same molecule, the Diastolic [2, 3] was 95 and 77 and 98 and 72 and 63, the MAP [2, 3] was 105 and 81 and 78 and 103 and 92 and the Systolic [2, 3] was 120 and 101 and 108 and 118 and 121. The Diastolic ([2]; 2h after dosing, Mean) was 74, the MAP ([2]; 2h after dosing, Mean) was 85 and the Systolic ([2]; 2h after dosing, Mean) was 109. The Diastolic [2, 4] was 75 and 64 and 68 and 76 and 85, the MAP [2, 4] was 86 and 76 and 79 and 92 and 93 and the Systolic [2, 4] was 107 and 100 and 103 and 125 and 111. For the same molecule, the Diastolic ([2]; 8h after dosing, Mean) was 81, the MAP ([2]; 8h after dosing, Mean) was 93 and the Systolic ([2]; 8h after dosing, Mean) was 119. For the same molecule, the Diastolic [2, 5] was 78 and 94 and 81 and 74 and 76, the MAP [2, 5] was 89 (3×) and 103 and 95 and the Systolic [2, 5] was 114 and 121 and 123 and 120 and 117. For the same molecule, the “Body weight, Pre-dose” value ([2]; Mean) was 25.3 g, the “Body weight, Terminal” value ([2]; Mean) was 24.8 g and the “Body weight, Pre-dose” value [2, 6] was 25.7 g and 27.0 g and 24.4 g (2×) and 25.0 g. For the same molecule, the “Body weight, Terminal” value [2, 6] was 24.9 g and 26.8 g and 23.9 g and 23.8 g and 24.5 g and the “blood pressure or body weight changes” value ([2]; up to 8 hours after injection) was “No changes”.
